What all share (type): cell-based
Assay [1] deals with human Burkitt's lymphoma cell line Namalwa. Description: Caspase cascade activation (EC50), Namalwa. Particulars: Homo sapiens, Burkitts lymphoma cell, Namalwa cells. How it is done: (§1) Human breast cancer cell lines T-47D, human hepatocellular carcinoma cell line SNU398, human colon carcinoma cell line HCT116, human cancer cell line H1299, human Burkitt's lymphoma cell line Namalwa, human lymphoma cell line Raji, and human B cell lymphoblastoid cell line Ramos were grown according to media component mixtures designated by American Type Culture Collection+10% FCS (Invitrogen Corporation), in a 5% CO2-95% humidity incubator at 37° C. T-47D and H1299 cells were maintained at a cell density between 50 and 80% confluency at a cell density of 0.1 to 0.6×10^6 cells/mL. Cells were harvested at 600×g and resuspended at 0.65×10^6 cells/mL into appropriate media+10% FCS. An aliquot of 22.5 μL of cells was added to a well of a 384-well microtiter plate containing 2.5 μL of a 10% DMSO in RPMI-1640 media solution containing 0.16 to 100 μM of 3-(2-chlorophenyl)-6-(3,4-methylenedioxyphenyl)-7H-[1,2,4]triazolo[3,4-b][1,3,4]thiadiazine or other test compound (0.016 to 10 μM final). An aliquot of 22.5 μL of cells was added to a well of a 384-well microtiter plate containing 2.5 μL of a 10% DMSO in RPMI-1640 media solution without test compound as the control sample. The samples were mixed by agitation and then incubated at 37° C. for 48 h in a 5% CO2-95% humidity incubator. After incubation, the samples were removed from the incubator and 25 μL of a solution containing 14 μM of N—(Ac-DEVD)-N′-ethoxycarbonyl-R110 (SEQ ID No.:1) fluorogenic substrate (Cytovia, Inc.; WO99/18856), 20% sucrose (Sigma), 20 mM DTT (Sigma), 200 mM NaCl (Sigma), 40 mM Na PIPES buffer pH 7.2 (Sigma), and 500 μg/mL lysolecithin (Calbiochem) was added. The samples were mixed by agitation and incubated at room temperature. Using a fluorescent plate reader (Model SPECTRAfluor Plus, Tecan), an initial reading (T=0) was made approximately 1-2 min after addition of the substrate solution, employing excitation at 485 nm and emission at 530 nm, to determine the background fluorescence of the control sample. After the 3 h incubation, the samples were read for fluorescence as above (T=3 h). Calculation: The Relative Fluorescence Unit values (RFU) were used to calculate the sample readings as follows: RFU(T=3H)−Control RFU(T=0)=Net RFU(T=3h) The activity of caspase cascade activation was determined by the ratio of the net RFU value for 3-(2-chlorophenyl)-6-(3,4-methylenedioxyphenyl)-7H-[1,2,4]triazolo[3,4-b][1,3,4]thiadiazine (Example P) or other test compound to that of control samples. The EC50 (nM) was determined by a sigmoidal dose-response calculation (Prism 3.0, GraphPad Software Inc.).

Assay [2] concerns human hepatocellular carcinoma cell line SNU398. Nature of the assay: Caspase cascade activation (EC50), SNU398. The following applies: Homo sapiens, SNU-398, SNU398 cells. How it is done: as §1
For assay [3], the system named is human colon carcinoma cell line HCT116. Nature of the assay: Caspase cascade activation (EC50), HCT116. The following applies: Homo sapiens, HCT-116, HCT116 cells. How it is done: as §1
In assay [4] the test system is human breast cancer cell line T-47D. Nature of the assay: Caspase cascade activation (EC50), T-47D. Particulars: Homo sapiens, T47D cells. How it is done: as §1
The mark [5] stands for this setting: caspase cascade activation, read-out: caspase potency (EC50) Namalwa.
[6] abbreviates: caspase cascade activation, read-out: caspase potency (EC50) SNU398.
Setting [7] is: caspase cascade activation, read-out: caspase potency (EC50) HCT116.
The mark [8] stands for this setting: caspase cascade activation, read-out: caspase potency (EC50) T47D.
Where [9] appears, read: read-out: Caspase potency (EC50) Namalwa.
Setting [10] is: read-out: Caspase potency (EC50) SNU398.
The mark [11] stands for this setting: read-out: Caspase potency (EC50) HCT116.
[12] abbreviates: read-out: Caspase potency (EC50) T47D.

Read-outs that look alike come from different tables or passages of the source. Some results are limits rather than exact numbers.

As a reminder, the EC50 is the concentration giving half of the maximal effect. On to `COc1cccc(C2=Nn3c(nnc3-c3ccc(Cl)cc3Cl)SC2)c1` [Example O3], for which the EC50 is 585 nM in assay [1] (setting [5]), 765 nM in assay [2] (setting [6]), 2620 nM in assay [3] (setting [7]) and 1300 nM in assay [4] (setting [8]).

Take `COc1ccccc1-c1n[nH]c2nc(=O)c(-c3ccc(C)cc3)nn12` [Example 38, 3-(2-Methoxyphenyl)-6-(4-methylphenyl)-1H-[1,2,4]triazolo[4,3-b][1,2,4]triazin-7-one]: the EC50 in assay [1] (setting [5]), in assay [2] (setting [6]), in assay [3] (setting [7]) and in assay [4] (setting [8]) was above 10000 nM each time.

In the case of `COc1cc(C)c(Cl)cc1C1=Nn2c(nnc2-c2ccccc2OC)SC1` [Example 49, 6-(5-Chloro-2-methoxy-4-methylphenyl)-3-(2-methoxyphenyl)-7H-[1,2,4]triazolo[3,4-b][1,3,4]thiadiazine], the EC50 in assay [1] (setting [5]) was 5590 nM; in assay [2] (setting [6]), 5650 nM; in assay [3] (setting [7]), above 10000 nM; in assay [4] (setting [8]), above 10000 nM.

As to `Cc1ccc(C2=Nn3c(nnc3-c3cccn3C)SC2)cc1` [Example 94, 3-(1-Methyl-1H-pyrrol-2-yl)-6-(4-methylphenyl)-7H-[1,2,4]triazolo[3,4-b][1,3,4]thiadiazine], the EC50 stood at 1290 nM in assay [1] (setting [5]), 1440 nM in assay [2] (setting [6]), 5510 nM in assay [3] (setting [7]) and 2630 nM in assay [4] (setting [8]).

As for `Cc1ccc(C2=Nn3c(nnc3-c3cc([N+](=O)[O-])cn3C)SC2)cc1` [Example 95, 3-(1-Methyl-4-nitro-1H-pyrrol-2-yl)-6-(4-methylphenyl)-7H-[1,2,4]triazolo[3,4-b][1,3,4]thiadiazine], the EC50 in assay [1] (setting [9]) turned out to be 328 nM; in assay [2] (setting [10]), 478 nM; in assay [3] (setting [11]) it was 693 nM; in assay [4] (setting [12]), 2700 nM.

Take `COc1ccccc1-c1nnc2n1N=C(c1ccc([N+](=O)[O-])c(OC)c1)CS2` [Example 45, 6-(3-Methoxy-4-nitrophenyl)-3-(2-methoxyphenyl)-7H-[1,2,4]triazolo[3,4-b][1,3,4]thiadiazine]: the EC50 in assay [1] (setting [5]), in assay [2] (setting [6]), in assay [3] (setting [7]) and in assay [4] (setting [8]) was above 10000 nM throughout.

As for `COc1ccccc1-c1nnc2n1N=C(c1ccc(C)c([N+](=O)[O-])c1)CS2` [Example 54, 3-(2-Methoxyphenyl)-6-(4-methyl-3-nitrophenyl)-7H-[1,2,4]triazolo[3,4-b][1,3,4]thiadiazine], the EC50 in assay [1] (setting [5]) came out at 290 nM; in assay [2] (setting [6]) it was 306 nM; in assay [3] (setting [7]), 441 nM; in assay [4] (setting [8]) it was 554 nM.

As for `COc1ccc(C2=Nn3c(nnc3-c3cccc(Cl)c3Cl)SC2)cc1` [Example M3], the EC50 is 68 nM in assay [1] (setting [5]), 82 nM in assay [2] (setting [6]), 124 nM in assay [3] (setting [7]) and 268 nM in assay [4] (setting [8]).

For the molecule `Cc1ccc(C2=Nn3c(nnc3-c3ccc(Cl)cc3C)SC2)cc1N` [Example 91, 6-(3-Amino-4-methylphenyl)-3-(4-chloro-2-methylphenyl)-7H-[1,2,4]triazolo[3,4-b][1,3,4]thiadiazine], the EC50 came out at 16 nM in assay [1] (setting [5]), 28 nM in assay [2] (setting [6]), 30 nM in assay [3] (setting [7]) and 63 nM in assay [4] (setting [8]).

For `COc1cc(-c2nnc3n2N=C(c2ccc(N(C)C)cc2)CS3)cc(OC)c1OC` [Example 67, 6-(4-Dimethylaminophenyl)-3-(3,4,5-trimethoxyphenyl)-7H-[1,2,4]triazolo[3,4-b][1,3,4]thiadiazine], the EC50 was 61 nM in assay [1] (setting [5]), 43 nM in assay [2] (setting [6]), 58 nM in assay [3] (setting [7]) and 175 nM in assay [4] (setting [8]).

For `COc1ccccc1-c1nnc2n1N=C(c1ccc(Cl)c(Cl)c1)CS2` [Example Q3], the half-maximal effective concentration (EC50) was 292 nM in assay [1] (setting [5]), above 10000 nM in assay [2] (setting [6]), above 10000 nM in assay [3] (setting [7]) and above 10000 nM in assay [4] (setting [8]).

In the case of `COc1ccccc1-c1nnc2n1N=C(c1cc(Br)c3c(c1)CCN3)CS2` [Example 96, 6-(7-Bromoindolin-5-yl)-3-(2-methoxyphenyl)-7H-[1,2,4]triazolo[3,4-b][1,3,4]thiadiazine], the EC50 stood at 31 nM in assay [1] (setting [9]), 35 nM in assay [2] (setting [10]), 79 nM in assay [3] (setting [11]) and 136 nM in assay [4] (setting [12]).

For the molecule `COc1ccccc1-c1nnc2n1N=C(c1ccc(C(=O)O)cc1)CS2` [Example 89, 6-(4-Carboxyphenyl)-3-(2-Methoxyphenyl)-7H-[1,2,4]triazolo[3,4-b][1,3,4]thiadiazine], the EC50 in assay [1] (setting [5]), in assay [2] (setting [6]), in assay [3] (setting [7]) and in assay [4] (setting [8]) was above 10000 nM each time.

For `COc1ccccc1-c1nnc2n1N=C(c1ccccc1)CS2` [Example K3], the EC50 was 2830 nM in assay [1] (setting [5]), 3780 nM in assay [2] (setting [6]), 5330 nM in assay [3] (setting [7]) and 3650 nM in assay [4] (setting [8]).

For the molecule `COc1ccccc1-c1nnc2n1N=C(c1ccc(NC(C)=O)c([N+](=O)[O-])c1)CS2` [Example 56, 6-(4-Acetamido-3-nitrophenyl)-3-(2-methoxyphenyl)-7H-[1,2,4]triazolo[3,4-b][1,3,4]thiadiazine], the EC50 in assay [1] (setting [5]) came to 270 nM; in assay [2] (setting [6]), 328 nM; in assay [3] (setting [7]) it was 506 nM; in assay [4] (setting [8]), 476 nM.

For `COc1cc(C2=Nn3c(nnc3-c3ccccc3OC)SC2)ccc1N` [Example 57, 6-(4-Amino-3-methoxyphenyl)-3-(2-methoxyphenyl)-7H-[1,2,4]triazolo[3,4-b][1,3,4]thiadiazine], the EC50 in assay [1] (setting [5]) turned out to be 2330 nM; in assay [2] (setting [6]) it was 2280 nM; in assay [3] (setting [7]), 2870 nM; in assay [4] (setting [8]) it was 2640 nM.

For `COc1ccccc1-c1nnc2n1N=C(c1ccc(C#N)cc1)CS2` [Example 87, 6-(4-Cyanophenyl)-3-(2-methoxyphenyl)-7H-[1,2,4]triazolo[3,4-b][1,3,4]thiadiazine], the EC50 in assay [1] (setting [5]) was determined as 2280 nM; in assay [2] (setting [6]), 2550 nM; in assay [3] (setting [7]) it was 5090 nM; in assay [4] (setting [8]), 3330 nM.

For `COc1ccccc1-c1nnc2n1N=C(c1ccc(OC(F)(F)F)cc1)CS2` [Example 50, 3-(2-Methoxyphenyl)-6-(4-(trifluoromethoxy)phenyl)-7H-[1,2,4]triazolo[3,4-b][1,3,4]thiadiazine], the EC50 in assay [1] (setting [5]) was determined as 500 nM; in assay [2] (setting [6]), 530 nM; in assay [3] (setting [7]) it was 564 nM; in assay [4] (setting [8]), 549 nM.

As to `COc1cc(Cl)ccc1-c1nnc2n1N=C(c1ccc(C)cc1)CS2` [Example 97, 3-(4-Chloro-2-methoxyphenyl)-6-(4-methylphenyl)-7H-[1,2,4]triazolo[3,4-b][1,3,4]thiadiazine], the EC50 in assay [1] (setting [9]) was 4 nM; in assay [2] (setting [10]), 6 nM; in assay [3] (setting [11]), 8 nM; in assay [4] (setting [12]), 34 nM.

For `COc1ccccc1-c1nnc2n1N=C(c1ccc(C(C)C)cc1)CS2` [Example 44, 6-(4-Isopropylphenyl)-3-(2-methoxyphenyl)-7H-[1,2,4]triazolo[3,4-b][1,3,4]thiadiazine], the EC50 in assay [1] (setting [5]) stood at 248 nM; in assay [2] (setting [6]), 243 nM; in assay [3] (setting [7]), 275 nM; in assay [4] (setting [8]), 281 nM.

With `COc1ccccc1-c1nnc2n1NC(c1ccc(C)cc1)CS2` (stereo not drawn) [Example 88, 5,6-Dihydro-3-(2-methoxyphenyl)-6-(4-methylphenyl)-7H-[1,2,4]triazolo[3,4-b][1,3,4]thiadiazine], the EC50 in assay [1] (setting [5]) was 1530 nM; in assay [2] (setting [6]) it was 2530 nM; in assay [3] (setting [7]) it was 2800 nM; in assay [4] (setting [8]), 5330 nM.

(Values after patent publication US20080045514A1 (Cytovia, Inc., priority 2006, published 2008).)
